Reference: PMC6983093, “Ketoprofen-Based Ionic Liquids: Synthesis and Interactions with Bovine Serum Albumin” (Molecules, 2019)
Several values for one entry are separate records, joined by “and”; a condition that tells them apart may be missing. Equal values may be shown once.

Columns and labels:
[1] = target: cytochrome C oxidase; parameters: method as in doi:10.1016/j.molliq.2017.02.027; settings: cited from earlier work; for IC50: read-out: IC50 for the inhibition of cytochrome C oxidase
[2] = target: T1, bovine serum albumin (BSA) (Bos taurus, UniProt P02769); assay: ATR-FTIR analysis of the Amide I band of BSA-compound complexes (secondary structure); settings: for α-Helices, Relative Area of Amide I band component: BSA 0.3 mM : compound 1:1, phosphate buffer pH 7.4, 50 mM, native BSA 47.3; for Unordered Structures, Relative Area of Amide I band component: '-' = no band, native BSA 21
T1 construct: Bovine serum albumin (BSA), heat shock fraction, protease-free, fatty acid-free, essentially globulin free (pH 7, ≥98%); purchased Merck (Darmstadt, Germany)
T1 sequence (P02769 25-607): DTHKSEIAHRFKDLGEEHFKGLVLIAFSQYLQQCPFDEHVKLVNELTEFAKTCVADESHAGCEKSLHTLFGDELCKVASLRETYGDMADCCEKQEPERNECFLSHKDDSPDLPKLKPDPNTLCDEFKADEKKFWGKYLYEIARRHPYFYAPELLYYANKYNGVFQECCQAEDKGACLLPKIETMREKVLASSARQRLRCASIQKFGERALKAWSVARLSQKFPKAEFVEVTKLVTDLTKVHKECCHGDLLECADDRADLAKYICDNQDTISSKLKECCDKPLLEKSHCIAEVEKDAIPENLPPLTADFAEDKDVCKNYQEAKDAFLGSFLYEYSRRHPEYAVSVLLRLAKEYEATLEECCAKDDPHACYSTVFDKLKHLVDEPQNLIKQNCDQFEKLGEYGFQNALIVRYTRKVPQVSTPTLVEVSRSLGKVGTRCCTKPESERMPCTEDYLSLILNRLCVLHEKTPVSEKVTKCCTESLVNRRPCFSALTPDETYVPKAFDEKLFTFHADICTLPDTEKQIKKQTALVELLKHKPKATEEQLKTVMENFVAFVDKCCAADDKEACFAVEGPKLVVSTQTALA
Procedure: In the spectra of proteins, the Amide I band region (1700–1600 cm^−1) is mainly due to the starching vibrations of the carbonyl group (80%) and is highly sensitive to the changes in the geometry and the environment of the amide bonds. […] The band assignments were done according to Jackson and Mantsch and the analysis of the structure was taken into consideration the data on the BSA available in the literature.
The spectra of the proteins were referenced to the respective spectra of 50 mM sodium phosphate buffer, pH 7.4 containing the same amount of the corresponding IL.
Then the ATR-FTIR spectra were Fourier deconvoluted by Opus software version 5.5 using a bandwidth of 12 cm^−1, 2.9 resolution enhancement factor, and Lorentzian lineshape. Second derivative spectra were obtained using the Savitzky-Golay algorithm based on 17 smoothing points. Then, the relative contribution of each band component of the Amide I band was determined by curve fitting following the procedure of the OPUS program. In the fitting, the number of components and the initial values of their position were set as determined from the second derivative spectra. The initial bandwidth of all components was set to 12 cm^−1 and the components were approximated by mixed Lorentzian/Gaussian functions. The curve-fitting was performed according to the Local Least Squares algorithm. The assignment of the Amide I band positions to the secondary structure was done according to [36].

[3] = target: T1, bovine serum albumin (BSA); assay: Steady-state FRET between BSA fluorophores and compound; type: binding; settings: [BSA] = [Quencher] = 2 μM; T = 25 °C
From the text: The following equations are used to estimate the steady-state FRET parameters:(3) E=1−F/Fo=Ro^6/Ro^6+ro^6, (4) Ro^6=8.8x10^−25K^2n^−4ϕJ, (5) J=∑F(λ)ε(λ)λ^4Δλ/∑F(λ)Δλ, where E is energy transfer efficacy, Ro is the characteristic distance called Förster distance or critical distance at which the energy transfer efficacy is 50%, ro is the distance between the quencher (drug) and the BSA fluorophores. […] F(λ) is the fluorescence intensity of the fluorescence of the donor, ε(λ) (L mol^−1 cm^−1) is the molar absorption coefficient of the acceptor at wavelength λ.
(§1) BSA-ILs incubated 1 hour prior to the measurements.

[4] = target: T1, bovine serum albumin (BSA); assay: BSA fluorescence quenching (Stern–Volmer and double-log analysis); type: binding; settings: 25 °C; for bimolecular quenching rate constant kq: pH 7.4, τo taken as 10^−8 s; for Binding constant KA / Stern–Volmer quenching constant Ksv: sodium phosphate buffer pH 7.4, 50 mM; for Stern–Volmer quenching constant Ksv: BSA 2 μM, λex 280 nm
Procedure: The fluorescence quenching data are analyzed according to the Stern–Volmer Equation (1):(1) Fo/F=1+kqτqo[Q]=1+Ksv[Q], where Fo and F is the fluorescence peak intensities in the absence and in the presence of quencher.
The maximum scatter quenching constant Kq that is due to collisions between biomolecules is 2 × 10^10 L mol^−1 s^−1 [33].
The dependence of log(Fo−F/F) vs. log[Q] is linear with a slope equal to the number of the binding sites, and y-intercept corresponds to the log of the effective binding constant (KA).
All fluorescence measurements were carried out on Perkin Elmer LS 55 fluorimeter equipped with a 1.0 cm quartz cuvette.
as §1

[5] = Thermogravimetric analysis (thermal stability, TG); settings: heating 10 °C min^−1, air atmosphere
[6] = BSA:compound 1:1, pH 7.4, one value per band, in the order of the band positions of the column to the left

Molecule	IC50 [1] [mM]	Toxicity relative to the parent sodium salt [1]	α-Helices, Relative Area of Amide I band component [2] [%]	Effect on the secondary structure of BSA (in words) ([2]; BSA:compound 1:1, pH 7.4)	Unordered Structures, Relative Area of Amide I band component ([2]; BSA:compound 1:1, pH 7.4) [%]	β-Structures, Relative Area of Amide I band components [2, 6]	EFRET (energy transfer efficacy) [3]	Ro (Förster critical distance) [3] [nm]	ro (distance between quencher and BSA fluorophores) [3] [nm]	bimolecular quenching rate constant kq [4]	Binding constant KA [4]	Stern–Volmer quenching constant Ksv [4]	Tonset (onset of the thermal degradation) [5] [°C]	Aromatic Residues/Aggregated Strands/Antiparallel β-Sheets, Relative Area of Amide I band components [2, 6] [%]
CC(C(=O)O)c1cccc(C(=O)c2ccccc2)c1 (stereo not shown) [cholinium ketoprofenate]	~21.3	–	–	–	–	–	–	–	–	–	–	–	–	–
COc1ccc2cc(C(C)C(=O)[O-])ccc2c1.C[N+](C)(C)CCO (stereo not shown) [cholinium naproxenate]	–	more toxic than its parent sodium salt	–	–	–	–	–	–	–	–	–	–	–	–
CC(C(=O)O)c1cccc(C(=O)c2ccccc2)c1 (stereo not shown) [sodium ketoprofenate]	~0.0006	–	–	–	–	–	–	–	–	–	–	–	–	–
L-Leucine Ethyl Ester Ketoprofenate [[L-LeuOEt][KETO]]	–	–	36.7	very close to the native BSA conformation	21.5	13.5% and 13.7%	0.0246	3.30	6.14	8.3 10^12, L mol^−1 s^−1	7.1 10^5, L mol^−1	8.3 10^4, L mol^−1	–	–
L-Valine Butyl Ester Ketoprofenate [[L-ValOBu][KETO]]	–	–	27.8	–	–	–	0.0520	3.32	5.48	7.3 10^12, L mol^−1 s^−1	7.5 10^5, L mol^−1	7.3 10^4, L mol^−1	101.1	–
L-Valine Ethyl Ester Ketoprofenate [[L-ValOEt][KETO]]	–	–	28.8	–	17.25	–	0.1830	3.43	4.68	6.3 10^12, L mol^−1 s^−1	8.2 10^5, L mol^−1	6.3 10^4, L mol^−1	100.4	–
L-Valine Isopropyl Ester Ketoprofenate [[L-ValOiPr][KETO]]	–	–	23.8	most dramatic changes in the secondary structure	11.7	–	0.0625	3.38	5.42	7.1 10^12, L mol^−1 s^−1	1.5 10^5, L mol^−1	7.1 10^4, L mol^−1	–	–
L-Valine Propyl Ester Ketoprofenate [[L-ValOPr][KETO]]	–	–	26.9	–	29.2	–	0.1770	3.46	4.74	7.1 10^12, L mol^−1 s^−1	2.3 10^5, L mol^−1	7.1 10^4, L mol^−1	52.3	11.0
